Values of other authors as cited in patent US11759428B2, “Pharmaceutical formulation comprising esomeprazole and sodium bicarbonate” (CHONG KUN DANG PHARMACEUTICAL CORP., priority 2018, dated 2023).

Settings: aqueous solution having 3 or lower of pH

degradation half-life: less than 10 minutes
SMILES: COc1ccc2nc([S@@+]([O-])Cc3ncc(C)c(OC)c3C)[nH]c2c1 [esomeprazole, (S)-5-methoxy-2-[(4-methoxy-3,5-dimethyl-2-pyridinyl)-methyl]sulfinyl-1H-benzimid azol]
